Test results from US10253071B2, “Selectin inhibitors, composition, and uses related thereto” (Beth Israel Deaconess Medical Center, Inc., priority 2014, dated 2019).
Like-named read-outs stand apart in the source and are kept apart here. Square brackets hold non-standard residues; d marks the D form. Ends that are not written are not given here. Peptide text beside a SMILES is read from it. * marks the point of attachment. X1 = CC(=O)N[C@@H]1[C@@H](O[C@@H]2O[C@H](CO)[C@H](O)[C@H](O)[C@H]2O)[C@@H](O)[C@@H](CO[C@@H]2O[C@H](CO)[C@@H](O[C@@H]3O[C@H](CO)[C@H](O)[C@H](O[C@]4(C(=O)O)C[C@H](O)[C@@H](NC(C)=O)[C@H]([C@H](O)[C@H](O)CO)O4)[C@H]3O)[C@H](O[C@@H]3O[C@@H](C)[C@@H](O)[C@@H](O)[C@@H]3O)[C@H]2NC(C)=O)O[C@@H]1*; Phe(4-SO3H) = N[C@@H](Cc1ccc(S(=O)(=O)O)cc1)C(=O)O; Mca = COc1ccc2c(CC(=O)*)cc(=O)oc2c1

How the values were obtained:
[1] = test system: P-selectin (recombinant Ig chimera); test: Microarray binding screen of glycopeptide mimics, P-selectin; set-up: species or system human and mouse; conditions: selectin Ig chimeras 5-20 μg/mL, Alexa-488 anti-human IgG
Protocol: (§1) Bound peptides were detected using Alexa-488 labeled anti-human IgG antibody (5 μg/mL). Three lectins RCA-1, AAL, and PNA were used to confirm the sequence of enzymatic steps. Monoclonal antibodies CHO131, PSG2 antibody and PL-1 were used to confirm the presence of SLex, tyrosine sulfates, and the peptide sequence, respectively. Biacore binding analysis to human P-selectin with observed rate constants for (D) GSnP-6, kon 3.1×10^5 M^−1s^−1, koff 6.9×10^3 M^−1s^−; GSn2P-6, kon6.4×10^5 M^−1s^−1, koff 6.8×10^3 M^−1s. Biacore binding analysis to mouse P-selectin with observed rate constants for (E) GsnP-6, kon 4.9×10^4 M^−1s^−1, koff 8.0×10^3 M^−1s^−; GSn2P-6 kon 5.3×10^4 M^−1s^−1, koff 9.0×10^3 M^−1s. (F) Temperature- and pH-dependent stability studies of GSnP-6.
Binding affinities of PSGL-1 mimics towards selectins was initially screened using a microarray in which glycosulfopeptides and glycan standards (Sialyl Le^x, NA2, NA2,3, NA2,6 and LNnT) were printed on a NHS-activated glass slide. The slide was then incubated with recombinant Ig chimeras of P-, L-, or E-selectin (5-20 μg/mL) followed by Alexa-488 labeled anti-human IgG antibody (5 μg/mL). […] Binding of glycopeptides mimics to selectins was […] dependent and inhibited by EDTA.

[2] = Chemical stability at low pH and at high temperature (RP-HPLC); type: physicochemical; conditions: sodium acetate/acetic acid buffer pH 5, 37° C.; and 2 mM phosphate buffer pH 7.5, 60° C.
Protocol: as §1
The chemical stability of GSnP-6 was evaluated under low pH conditions by incubating the compound in sodium acetate/acetic acid buffer at pH 5, 37° C., as well as under high temperature conditions by incubation in 2 mM phosphate buffer at pH 7.5, 60° C. (FIG. 3E).

human P-selectin [3] = molecular target: T1, human P-selectin (Homo sapiens, UniProt P16109); test: Biacore binding assay, human P-selectin
T1 sequence (P16109 42-830): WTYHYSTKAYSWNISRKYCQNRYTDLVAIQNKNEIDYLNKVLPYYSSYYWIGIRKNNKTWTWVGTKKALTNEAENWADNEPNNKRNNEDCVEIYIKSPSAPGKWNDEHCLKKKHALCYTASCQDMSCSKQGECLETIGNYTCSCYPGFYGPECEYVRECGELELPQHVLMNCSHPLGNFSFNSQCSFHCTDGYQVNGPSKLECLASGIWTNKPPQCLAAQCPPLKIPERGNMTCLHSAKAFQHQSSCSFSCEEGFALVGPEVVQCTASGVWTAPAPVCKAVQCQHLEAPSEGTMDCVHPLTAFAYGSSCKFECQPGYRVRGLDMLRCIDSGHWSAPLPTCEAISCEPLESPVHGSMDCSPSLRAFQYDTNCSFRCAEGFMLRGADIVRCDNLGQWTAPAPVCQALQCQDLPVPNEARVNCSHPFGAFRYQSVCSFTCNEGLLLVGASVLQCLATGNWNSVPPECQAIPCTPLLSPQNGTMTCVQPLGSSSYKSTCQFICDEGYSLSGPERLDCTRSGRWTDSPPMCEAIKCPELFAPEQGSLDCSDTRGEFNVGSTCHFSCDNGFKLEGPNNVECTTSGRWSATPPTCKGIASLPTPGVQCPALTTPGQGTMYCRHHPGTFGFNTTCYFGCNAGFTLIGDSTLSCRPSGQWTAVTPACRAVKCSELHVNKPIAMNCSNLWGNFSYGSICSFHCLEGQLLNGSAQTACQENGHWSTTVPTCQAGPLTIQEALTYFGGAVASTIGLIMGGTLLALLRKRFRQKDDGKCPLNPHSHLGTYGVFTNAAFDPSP
Protocol: as §1
(§2) Dissociation constants (Kd) were determined using a Biacore binding assay after initial capture of biotinylated GS(n)P-6 onto streptavidin-coated sensor chips followed by flow through of P-, L- or E-sel-Ig (2.5 to 60 μg/mL). […] The Kd of GSnP-6 to murine P-selectin was ˜9-fold lower than to human P-selectin.

mouse P-selectin = molecular target: T2, mouse P-selectin (Mus musculus, UniProt Q01102); test: Biacore binding assay, mouse P-selectin
T2 sequence (Q01102 42-768): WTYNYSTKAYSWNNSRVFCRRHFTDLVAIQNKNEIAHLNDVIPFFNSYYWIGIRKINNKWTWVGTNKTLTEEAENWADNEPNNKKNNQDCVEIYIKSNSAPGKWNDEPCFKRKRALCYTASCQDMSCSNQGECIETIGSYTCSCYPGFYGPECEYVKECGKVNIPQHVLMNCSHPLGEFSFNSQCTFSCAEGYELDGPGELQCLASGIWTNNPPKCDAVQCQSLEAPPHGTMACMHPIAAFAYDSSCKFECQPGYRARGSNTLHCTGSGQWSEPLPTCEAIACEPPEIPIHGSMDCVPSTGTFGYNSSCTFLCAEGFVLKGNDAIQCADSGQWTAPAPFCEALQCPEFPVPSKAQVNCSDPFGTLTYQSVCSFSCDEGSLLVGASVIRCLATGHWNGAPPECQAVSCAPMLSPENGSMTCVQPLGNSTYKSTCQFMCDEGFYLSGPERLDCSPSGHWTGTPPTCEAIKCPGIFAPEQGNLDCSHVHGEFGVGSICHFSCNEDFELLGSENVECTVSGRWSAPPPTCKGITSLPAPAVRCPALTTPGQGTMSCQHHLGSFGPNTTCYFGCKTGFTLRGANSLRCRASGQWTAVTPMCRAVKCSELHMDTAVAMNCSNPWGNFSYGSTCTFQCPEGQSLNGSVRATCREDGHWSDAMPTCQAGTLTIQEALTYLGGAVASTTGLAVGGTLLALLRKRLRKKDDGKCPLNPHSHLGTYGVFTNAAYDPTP
Protocol: as §1, §2

human P-selectin [4] = molecular target: T1, human P-selectin; conditions: comparison value for P-selectin; read-out: Kd of native PSGL-1 (comparison value); cited from earlier work

For “GSP-6: Tyrosine O-sulfate series (X: O; R=H); native N-terminal PSGL-1 sequence containing tyrosine sulfate, hexasaccharide glycan (EYEYLDYDFLPETEPPE; also: tyrosine O-sulfate, positions not given here, hexasaccharide glycan, site not given here) [reference compound]”, the “binding to P-selectin compared with E- or L-selectin” value [1] was “bound to P-selectin more strongly than to E- or L-selectin” and the “chemical stability (degraded products by RP-HPLC)” value [2] was “rapidly degrades”.

`COc1ccc2c(CC(=O)NCCCC[C@H](N)C(=O)N[C@@H](CCC(=O)O)C(=O)N[C@@H](Cc3ccc(S(=O)(=O)O)cc3)C(=O)N[C@@H](CCC(=O)O)C(=O)N[C@@H](Cc3ccc(S(=O)(=O)O)cc3)C(=O)N[C@@H](CC(C)C)C(=O)N[C@@H](CC(=O)O)C(=O)N[C@@H](Cc3ccc(S(=O)(=O)O)cc3)C(=O)N[C@@H](CC(=O)O)C(=O)N[C@@H](Cc3ccccc3)C(=O)N[C@@H](CC(C)C)C(=O)N3CCC[C@H]3C(=O)N[C@@H](CCC(=O)O)C(=O)N[C@H](C(=O)N[C@@H](CCC(=O)O)C(=O)N3CCC[C@H]3C(=O)N[C@@H](CC(C)C)C(=O)O)[C@@H](C)O[C@H]3O[C@H](CO[C@@H]4O[C@H](CO)[C@@H](O[C@@H]5O[C@H](CO)[C@H](O)[C@H](O[C@]6(C(=O)O)C[C@H](O)[C@@H](NC(C)=O)[C@H]([C@H](O)[C@H](O)CO)O6)[C@H]5O)[C@H](O[C@@H]5O[C@@H](C)[C@@H](O)[C@@H](O)[C@@H]5O)[C@H]4NC(C)=O)[C@H](O)[C@H](O[C@@H]4O[C@H](CO)[C@H](O)[C@H](O)[C@H]4O)[C@H]3NC(C)=O)cc(=O)oc2c1` [GSn2P-6] (H-K(Mca)E[Phe(4-SO3H)]E[Phe(4-SO3H)]LD[Phe(4-SO3H)]DFLPET(X1)EPL-OH; N-terminus assumed) showed a koff (human P-selectin [3]; Biacore observed rate constant) of 0.0068 s⁻¹, a kon (human P-selectin [3]; Biacore observed rate constant) of 640000 M⁻¹ s⁻¹ and a Kd (human P-selectin [3]; biotinylated GS(n)P-6 captured on streptavidin chip, P-sel-Ig 2.5 to 60 μg/mL, read-out: Dissociation constant (Kd) to human P-selectin) of 14 nM. For the same molecule, the koff (mouse P-selectin; read-out: koff, mouse P-selectin) was 0.009 s⁻¹ and the kon (mouse P-selectin; read-out: kon, mouse P-selectin) was 53000 M⁻¹ s⁻¹.

B1: native PSGL-1: native P-selectin glycopeptide ligand-1, Kd comparison value (protein, UniProt Q14242 42-412, looked up)
P-selectin glycoprotein …: QATEYEYLDYDFLPETEPPEMLRNSTDTTPLTGPGTPESTTVEPAARRSTGLDAGGAVTELTTELANMGNLSTDSAAMEIQTTQPAATEAQTTQPVPTEAQTTPLAATEAQTTRLTATEAQTTPLAATEAQTTPPAATEAQTTQPTGLEAQTTAPAAMEAQTTAPAAMEAQTTPPAAMEAQTTQTTAMEAQTTAPEATEAQTTQPTATEAQTTPLAAMEALSTEPSATEALSMEPTTKRGLFIPFSVSSVTHKGIPMAASNLSVNYPVGAPDHISVKQCLLAILILALVATIFFVCTVVLAVRLSRKGHMYPVRNYSPTEMVCISSLLPDGGEGPSATANGGLSKAKSPGLTPEPREDREGDDLTLHSFLP
In the case of B1, the Kd (human P-selectin [4]) is listed as 73 nM.
